# Experimental data from article PMC3795654, “Combinatorial Optimization of Cystine-Knot Peptides towards High-Affinity Inhibitors of Human Matriptase-1” (PLoS ONE, 2013).
# Read-outs that look alike come from different tables or passages of the source. Where a SMILES comes first, the peptide text is derived from it. Bridges are numbered along the chain shown (N, C = ends).
# What was measured:
# [1] = biological target: T1, Bovine pancreatic trypsin (Bos taurus, UniProt P00760); assay: Trypsin inhibition assay (substrate-independent Ki); type: biochemical; details: substrate-independent Ki from Ki app (Morrison equation) and Km; 250 µM substrate; preincubation 30 min RT; read over 30 min; triplicate
# T1 construct: purchased Sigma-Aldrich
# T1 sequence (P00760 24-246): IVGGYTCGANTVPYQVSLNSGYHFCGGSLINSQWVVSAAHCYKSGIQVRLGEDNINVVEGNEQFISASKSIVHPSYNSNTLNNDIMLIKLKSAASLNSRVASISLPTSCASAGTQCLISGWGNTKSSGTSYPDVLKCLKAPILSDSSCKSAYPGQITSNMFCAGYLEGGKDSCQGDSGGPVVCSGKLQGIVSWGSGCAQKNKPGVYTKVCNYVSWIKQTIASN
# Experimental: (§5) Apparent inhibition constants (Ki ^app) were calculated by fitting the Morrison equation (1) for tight-binding inhibitors to the relative reaction velocity using non-linear regression (Marquardt-Levenberg algorithm, Sigma Plot 11) [63].
# Human matriptase-1 [2] = biological target: T2, Human matriptase-1 (Homo sapiens, UniProt Q9Y5Y6); assay: Matriptase-1 inhibition assay (Ki / Ki app); type: biochemical; details: substrate-independent Ki from Ki app (Morrison equation) and Km; 250 µM substrate; preincubation 30 min RT; read over 30 min; triplicate; read-out: Ki (Matriptase-1)
# T2 construct: made in house
# T2 sequence (Q9Y5Y6 615-855 limits assumed): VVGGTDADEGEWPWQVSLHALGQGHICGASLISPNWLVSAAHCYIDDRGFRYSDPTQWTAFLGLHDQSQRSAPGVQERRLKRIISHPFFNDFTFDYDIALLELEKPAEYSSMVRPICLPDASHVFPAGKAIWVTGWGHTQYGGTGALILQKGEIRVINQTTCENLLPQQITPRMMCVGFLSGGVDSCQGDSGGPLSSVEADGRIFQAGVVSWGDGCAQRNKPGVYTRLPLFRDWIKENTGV
# Experimental: (§6) Human matriptase-1 was produced recombinantly, autocatalytically activated and purified as previously reported [35], [49], [51], [60].
# as §5
# Human matriptase-1 [3] = assay: Matriptase-1 inhibition assay (Ki / Ki app); type: biochemical; details: ratio of Ki values of Table 1
# Experimental: as §6, §5
# thrombin = assay: Selectivity assay, thrombin inhibition; type: biochemical; details: duplicates; 5 nM protease; no inhibition observed at 10 µM inhibitor concentration
# Experimental: as §5
# Hepsin = Hepsin (Homo sapiens, UniProt P05981); assay: biochemical
# Sequence of Hepsin (P05981 whole entry): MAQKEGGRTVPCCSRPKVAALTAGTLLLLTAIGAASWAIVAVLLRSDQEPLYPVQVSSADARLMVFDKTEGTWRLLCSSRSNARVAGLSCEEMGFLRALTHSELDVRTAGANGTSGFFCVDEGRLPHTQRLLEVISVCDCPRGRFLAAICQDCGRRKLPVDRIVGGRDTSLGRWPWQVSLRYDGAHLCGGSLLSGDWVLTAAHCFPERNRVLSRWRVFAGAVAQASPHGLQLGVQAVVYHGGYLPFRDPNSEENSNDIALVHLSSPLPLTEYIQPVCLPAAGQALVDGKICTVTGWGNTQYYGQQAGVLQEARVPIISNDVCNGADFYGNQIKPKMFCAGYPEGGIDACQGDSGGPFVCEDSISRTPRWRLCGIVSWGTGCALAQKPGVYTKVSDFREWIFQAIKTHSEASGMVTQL
# Experimental: (§1) Human matriptase-1 was produced recombinantly, autocatalytically activated and purified as previously reported, [49], [51], [60]. Bovine pancreatic trypsin, thrombin and uPA were purchased from Sigma-Aldrich and Hepsin from R&D Systems.
# (§2) Measurements were carried out in triplicate using a Tecan Genios ELISA reader. The normalized residual proteolytic activity (v/v0) of proteases was determined using substrates Boc-QAR-pNA (250 µM, (pNA stands for para-nitro aniline), Boc-QAR-AMC (250 µM, AMC stands for amino-methyl coumarin) or Spectrozym tPA (250 µM, American Diagnostica, CH3SO2-D-CHT-Gly-Arg-pNA AcOH). Product formation was monitored after preincubation (30 min, RT) with inhibitor at different concentrations over 30 min by measuring the absorbance at 405 nm for pNA substrates or the fluorescence emission for AMC substrates (ex. 360 nm, em. 465 nm), respectively. Selectivity data were carried out in duplicates with final protease concentrations of uPA and thrombin of 5 nM. In case of hepsin 50 mM Tris/HCl pH 9.0 was used as assay buffer.
# (§3) Apparent inhibition constants (Ki ^app) were calculated by fitting the Morrison equation (1) for tight-binding inhibitors to the relative reaction velocity using non-linear regression (Marquardt-Levenberg algorithm, Sigma Plot 11). [drawing 1] (1) [drawing 2] (2)
# (§4) Substrate-independent inhibition constants Ki were calculated from Ki ^app and Km of the enzyme according to (2). The Michaelis-Menten constant Km for the substrates and proteases were determined previously, [64].
# uPA = uPA (Homo sapiens, UniProt P00749); assay: biochemical
# Experimental: as §1, §2, §3, §4
# [4] = test system: uPA activation by matriptase-1 on the surface of PC-3 cells; assay: Cell inhibition assay: uPA activation by matriptase-1 on the surface of PC-3 cells; type: cell-based, human
# Experimental: Human prostate cancer cells (PC-3, Merck KGaA) were cultured in DMEM medium with 10% FCS at 37°C and 5% CO2, washed with cation-free PBS and harvested by scraping. 1×10^5 cells were incubated in presence of 250 µM Bz-β-Ala-Gly-Arg-pNA·AcOH (American Diagnostica), which is a specific […] of urokinase, and the inhibitor of interest in defined dilutions overnight. Product formation was monitored at 405 nm before and after incubation in a microplate reader. IC50 was calculated by non-linear regression using SigmaPlot 11.
# Urokinase-type plasminogen activator (uPA) causes the degradation of the extracellular matrix and plays a critical role in tumor invasion and metastasis, [73]. It was shown that activation of receptor-bound pro-uPA is affected by matriptase-1, which results in a decreased ability of uPAexpressing tumor cells to invade an extracellular matrix layer upon inhibition of membrane-bound matriptase-1 [72].
# For the indirect determination of the IC50 of SOTI Var. 1 and MCoTI Var. 4 on the surface of these cancer cells, the turnover of an uPA substrate was monitored. Pro-uPA is activated through non-inhibited matriptase-1 and substrate turnover was measured and compared to the previously reported small molecule inhibitor S1 of matriptase-1 (Figure 4). In this experimental setting, the MCoTI-based inhibitor Var. […] 4 in this assay.
# Figure 4 Inhibition assay of uPA activation by matriptase-1 on the surface of PC-3 cells. Depicted is the logarithmic inhibitor concentration against the absorption at 405 TEXT PRINTED IN THE PICTURE: MCoTI Var.
smiles,measurement,setting,value
"CC[C@H](C)[C@@H]1NC(=O)[C@@H]2CSSC[C@H](NC(=O)[C@@H](NC(=O)CNC(=O)[C@@H](N)Cc3c[nH]c4ccccc34)C(C)C)C(=O)N3CCC[C@H]3C(=O)N[C@@H](CCCCN)C(=O)N[C@@H](C(C)C)C(=O)N[C@@H](CC(C)C)C(=O)N[C@@H](CCCNC(=N)N)C(=O)N[C@@H](CC(N)=O)C(=O)N[C@H]3CSSC[C@H](NC1=O)C(=O)N[C@@H](CC(C)C)C(=O)NCC(=O)N[C@@H](CC(N)=O)C(=O)NCC(=O)N[C@@H](Cc1ccc(O)cc1)C(=O)N[C@H](C(=O)NCC(N)=O)CSSC[C@H](NC(=O)[C@H](CC(=O)O)NC(=O)[C@H](CO)NC(=O)[C@H](CC(=O)O)NC(=O)[C@H](CCCNC(=N)N)NC(=O)[C@H](CCCNC(=N)N)NC3=O)C(=O)N1CCC[C@H]1C(=O)NCC(=O)N[C@@H](C)C(=O)N2 [MCoTI Var. 4] (H-WGVCPKVLRNCRRDSDCPGACICLGNGYCG-NH2; disulfide 4-21, 11-23, 17-29)",Ki,[1],35.8 ± 4.7 nM
same,Ki,Human matriptase-1 [2],0.83 ± 0.14 nM
same,inhibitory activity for matriptase-1 relative to trypsin,Human matriptase-1 [3],approximately fortyfold higher
same,Ki,thrombin,> 10000 nM
same,Ki,Hepsin,> 10000 nM
same,Ki,"Hepsin; read-out: Ki (Hepsin), duplicates, 50 mM Tris/HCl pH 9.0, no inhibition observed at 10 µM inhibitor concentration",> 10000 nM
same,Ki,uPA,> 10000 nM
same,IC50,"[4]; 1×10^5 PC-3 cells, 250 µM Bz-β-Ala-Gly-Arg-pNA, overnight, absorbance 405 nm, read-out: IC50 (uPA substrate turnover on PC-3 cells)",213 nM
same,potency relative to recently described peptidomimetic small-molecule inhibitors,"[4]; PC-3 cells, IC50 comparison (Figure 4)",10 fold
